Molecular target: Isocitrate lyase (Candida albicans, UniProt Q9P8Q7)
Assay: Inhibition of candida albicans isocitrate lyase

Chain of Isocitrate lyase (Q9P8Q7 whole entry): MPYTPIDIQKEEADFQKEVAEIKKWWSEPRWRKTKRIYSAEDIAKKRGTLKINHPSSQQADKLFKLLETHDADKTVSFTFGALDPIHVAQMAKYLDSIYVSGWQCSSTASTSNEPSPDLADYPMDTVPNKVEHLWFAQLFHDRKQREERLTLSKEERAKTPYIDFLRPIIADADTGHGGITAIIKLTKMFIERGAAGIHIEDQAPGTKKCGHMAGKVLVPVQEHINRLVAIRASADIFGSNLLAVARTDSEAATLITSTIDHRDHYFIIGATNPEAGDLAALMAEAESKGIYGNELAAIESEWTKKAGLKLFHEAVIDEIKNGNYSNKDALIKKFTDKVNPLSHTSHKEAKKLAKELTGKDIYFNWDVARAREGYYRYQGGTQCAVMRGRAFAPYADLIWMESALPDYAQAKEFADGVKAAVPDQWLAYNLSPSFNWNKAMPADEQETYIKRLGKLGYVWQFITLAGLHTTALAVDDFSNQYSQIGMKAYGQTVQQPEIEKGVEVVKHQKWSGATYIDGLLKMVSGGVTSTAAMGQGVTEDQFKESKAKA

IC50: 158 µM
SMILES: CC1=CC[C@H]2C(C)(C)CCC[C@]2(C)[C@H]1C[C@@H](OS(=O)(=O)O)[C@H](C)CCC/C(C)=C/Cc1cc(O)ccc1O
